Measured values from patent US20180256460A1, “STAIN-REMOVING ORAL COMPOSITION” (LOTTE CO., LTD., priority 2014, published 2018).
“Also recorded” adds a separate entry of the source.

Tests used:
[1] = Stain-removing effect of saliva solutions containing chewing gum components, color difference of stained hydroxyapatite discs; settings: for Stain-removing effect of the acidulant itself: color difference: 0.1% in saliva solution, pH 6, compared to the saliva alone (pH 7), FIG. 3A, n=5, p<0.05
Protocol: Each research volunteer was asked to masticate one tablet of salivary gum (Morita Corporation), and about 30 ml of the saliva was collected respectively. The collected saliva was all combined in one container (beaker) so that personal information could not be traced. The collected saliva was centrifuged at 2,500×g for 10 minutes, and the supernatant was used as a saliva sample for a solvent in a testing solution.
The amount of the saliva collected when masticating 2 tablets of gum for 5 minutes was 15 ml on average. The sugar alcohol or acidulant was dissolved under stirring in a weight ratio corresponding to 2 tablets of the sample chewing gum into 15 ml of the saliva sample processed with the procedure of 2. That is, to 15 ml of a saliva sample, 2.31 g (15.4%) of the sugar alcohol or 15 mg (0.1%) of the acidulant was added and dissolved. Sodium metaphosphate was dissolved under stirring in an amount needed for each testing. For pH adjustment, an aqueous solution of hydrochloric acid or sodium hydroxide was used.
3% green tea extract, 1% black tea extract, and 1% instant coffee were dissolved under stirring in mineral water at 100° C. to obtain a staining liquid (instant coffee; Ajinomoto General Foods, Inc., mineral water; Suntory Foods Limited).
Hydroxyapatite discs (10 mm×10 mm, APP-100, HOYA Corporation) the surfaces of which were uniformly polished with a P400 waterproof abrasive paper were used as human enamel models. The hydroxyapatite discs after polishing were subjected to color measurement by the method of 6. as mentioned below to obtain reference values for the discs. The hydroxyapatite discs were separately put in a 12-well plate (IWAKI&Co., Ltd.) and immersed in 2.5 ml of the saliva sample and allowed to stand still at 37° C. for 2 hours so that saliva pellicles were formed on the surface. The discs were washed with water, and immersed in 2.5 ml of the staining liquid each added in each well of a fresh 12-well plate, and moderately shook at 37° C. for 24 hours so that stains were formed. The hydroxyapatite discs after staining were subjected to color measurement by the method in 6. mentioned below to obtain measurement values after staining. Hydroxyapatite discs after staining subjected to color measurement were placed in a fresh 12-well plate, and 2.5 ml of the saliva sample, the saliva solution containing chewing gum components, or the chewing gum extract solution was dispensed in each well, then the discs were immersed for 5 minutes or 35 minutes. The immersed discs were washed with distilled water, and extra water was wiped off with paper to dry the discs, followed by color measurement.
A spectrophotometer (CM-700d, Konica Minolta, Inc.) was set upright so that the colorimetric direction was upward. Hydroxyapatite discs before the pellicle formation, after staining or after the solution treatment were allowed to stand still above the colorimetric light source, and color measurements were performed 3 times successively, and the average value was employed. Color measurements were performed on the L*axis (lightness), the a*axis (chroma: red-green axis), and the b*axis (chroma: yellow-blue axis) of the L*a*b*color space based on JIS Z 8722:2009, under the condition of SCI including reflected light. […] E*ab was calculated according to the following expressions. […]

[2] = aqueous system; cited from earlier work

## O=C(O)CC(O)(CC(=O)O)C(=O)O [citric acid]
[1]
  Stain-removing effect of the acidulant itself: color difference: a decrease in the color difference was observed

## O=C(O)CC(O)C(=O)O (centres unmarked) [malic acid]
[1]
  Stain-removing effect of the acidulant itself: color difference: a decrease in the color difference was observed

## O=P(=O)O [metaphosphoric acid]
[2]
  pKa: as small as not measurable in an aqueous system

## sodium metaphosphate
[1]; 0.066% or 0.2% in the saliva, compared to the saliva alone, FIG. 1, n=6, p<0.05
  Stain-removing effect: color difference of stained hydroxyapatite discs: a significant difference was observed compared to the case where the discs were treated with the saliva alone; also recorded: a significant decrease in the color difference was observed
[1]; saliva with 0.1% sodium metaphosphate, pH 5 compared to pH 7, FIG. 3C, n=6, p<0.05
  Influence of pH on stain removal: transition of the color difference: a significant difference in the transition of the color difference was observed
